system: HBV; assay: HBV replication inhibition assay (BDNA assay) in HepG2.2.15 cells; format: cell-based; conditions: HepG2.2.15 cells, BDNA assay, encapsidated HBV DNA in supernatant at day 6; read-out: HepG2.2.15 EC50 HBV DNA
Protocol: HBV replication inhibition by the disclosed compounds were determined in cells infected or transfected with HBV or cells with stably integrated HBV, such as HepG2.2.15 cells (Sells et al. 1987). In this example, HepG2.2.15 cells were maintained in cell culture medium containing 10% fetal bovine serum (FBS), Geneticin, L-glutamine, penicillin and streptomycin. HepG2.2.15 cells were seeded in 96-well plates at a density of 40,000 cells/well and were treated with serially diluted compounds at a final DMSO concentration of 0.5% either alone or in combination by adding drugs in a checker box format. Cells were incubated with compounds for three days, after which medium was removed and fresh medium containing compounds was added to cells and incubated for another three days. At day 6, supernatant was removed and treated with DNase at 37° C. for 60 minutes, followed by enzyme inactivation at 75° C. for 15 minutes. Encapsidated HBV DNA was released from the virions and covalently linked HBV polymerase by incubating in lysis buffer (Affymetrix QS0010) containing 2.5 μg proteinase K at 50° C. for 40 minutes. HBV DNA was denatured by addition of 0.2 M NaOH and detected using a branched DNA (BDNA) QuantiGene assay kit according to manufacturer recommendation (Affymetrix). HBV DNA levels were also quantified using qPCR, based on amplification of encapsidated HBV DNA extraction with QuickExtraction Solution (Epicentre Biotechnologies) and amplification of HBV DNA using HBV specific PCR probes that can hybridize to HBV DNA and a fluorescently labeled probe for quantitation. In addition, cell viability of HepG2.2.15 cells incubated with test compounds alone or in combination was determined by using CellTitre-Glo reagent according to the manufacturer protocol (Promega). The mean background signal from wells containing only culture medium was subtracted from all other samples, and percent inhibition at each compound concentration was calculated by normalizing to signals from HepG2.2.15 cells treated with 0.5% DMSO using equation E1.
% inhibition=(DMSOave−Xi)/DMSOave×100% E1
where DMSOave is the mean signal calculated from the wells that were treated with DMSO control (0% inhibition control) and Xi is the signal measured from the individual wells. EC50 values, effective concentrations that achieved 50% inhibitory effect, were determined by non-linear fitting using Graphpad Prism software (San Diego, Calif.) and equation E2.
Y=Ymin+(Ymax−Ymin)/(1+10(Log EC50−X)×HillSlope) E2
where Y represents percent inhibition values and X represents the logarithm of compound concentrations.
Selected disclosed compounds were assayed in the HBV replication assay (BDNA assay), as described above, and a representative group of these active compounds is shown in Table 3.

| Compound | EC50 |
| --- | --- |
| C[C@@H]1Cc2nn3c(c2CN1C(=O)Nc1ccc(F)c(C#N)c1)C(F)(F)CCC(CO)C3 (single isomer, unassigned) [Example 75, (3R,8S*)-N-(3-Cyano-4-fluorophenyl)-11,11-difluoro-8-(hydroxymethyl) -3-methyl-3,4,8,9,10,11-hexahydro-1H-pyrido[4′,3′:3,4]pyrazolo[1,5-a]azepine-2(7H)-carboxamide] | 0.005 µM |

same assay, conditions: Hepatitis B virus, HepG2.2.15, 144 h, HepG2.2.15 cells, BDNA assay, encapsidated HBV DNA in supernatant at day 6; read-out: HepG2.2.15 EC50 HBV DNA

| Compound | EC50 |
| --- | --- |
| C#C[C@]1(O)CCC(F)(F)c2c3c(nn2C1)C[C@@H](C)N(C(=O)Nc1ccnc(C(F)F)c1F)C3 (relative stereo) [Example 100, (3R,8S*)-N-(2-Difluoromethyl)-3-fluoropyridin-4-yl)-8-ethynyl-11,11-difluoro-8-hydroxy-3-methyl-3,4,8,9,10,11-hexahydro-1H-pyrido[4′,3′:3,4]pyrazolo[1,5-a]azepine-2(7H)-carboxamide] | 0.168 µM |
| C[C@@H]1Cc2nn3c(c2CN1C(=O)Nc1ccc(F)c(C#N)c1)C(F)(F)C[C@@H](CO)CC3 (relative stereo) [Example 132] | 0.007 µM |
| O=C(Nc1ccnc(Br)c1F)N1CCc2nn3c(c2C1)C(F)(F)CCC(O)(COCC(F)F)C3 (single isomer, unassigned) [Example 32, (R*)-N-(2-Bromo-3-fluoropyridin-4-yl)-8-((2,2-difluoroethoxy)methyl)-11,11-difluoro-8-hydroxy-3,4,8,9,10,11-hexahydro-1H-pyrido[4′,3′:3,4]pyrazolo[1,5-a]azepine-2(7H)-carboxamide] | 0.138 µM |
| O=C(Nc1ccnc(Br)c1F)N1CCc2nn3c(c2C1)C(F)(F)CCC(O)(CF)C3 (single isomer, unassigned) [Example 38, (S*)-N-(2-Bromo-3-fluoropyridin-4-yl)-11,11-di fluoro-8-(fluoromethyl) -8-hydroxy-3,4,8,9,10,11-hexahydro-1H-pyrido[4′,3′:3,4]pyrazolo[1,5-a]azepine-2(7H)-carboxamide] | 0.084 µM |
| C=CC1(O)CCC(F)(F)c2c3c(nn2C1)CCN(C(=O)Nc1ccc(F)c(C#N)c1)C3 (single isomer, unassigned) [Example 56, (R*)-N-(3-Cyano-4-fluorophenyl)-11,11-difluoro-8-hydroxy-8-vinyl-3,4,8,9,10,11-hexahydro-1H-pyrido[4′,3′:3,4]pyrazolo[1,5-a]azepine-2(7H)-carboxamide] | 0.016 µM |
| C#CC1(O)CCC(F)(F)c2c3c(nn2C1)CCN(C(=O)Nc1ccnc(Br)c1F)C3 (single isomer, unassigned) [Example 63, (R*)-N-(2-Bromo-3-fluoropyridin-4-yl)-8-ethynyl-11,11-difluoro-8-hydroxy-3,4,8,9,10,11-hexahydro-1H-pyrido[4′,3′:3,4]pyrazolo[1,5-a]azepine-2(7H)-carboxamide] | 0.119 µM |
| C[C@@H]1Cc2nn3c(c2CN1C(=O)Nc1ccc(F)c(C#N)c1)C(F)(F)CCC(O)(CF)C3 (single isomer, unassigned) [Example 83, (3R,8R*)-N-(3-Cyano-4-fluorophenyl)-11,11-difluoro-8-(fluoromethyl)-8-hydroxy-3-methyl-3,4,8,9,10,11-hexahydro-1H-pyrido[4′,3′:3,4]pyrazolo[1,5-a]azepine-2(7H)-carboxamide] | 0.01 µM |
| C[C@@H]1Cc2nn3c(c2CN1C(=O)Nc1ccnc(Br)c1F)C(F)(F)CCC(O)(CF)C3 (single isomer, unassigned) [Example 84, (3R,8R*)-N-(2-Bromo-3-fluoropyridin-4-yl)-11,11-difluoro-8-(fluoromethyl)-8-hydroxy-3-methyl-3,4,8,9,10,11-hexahydro-1H-pyrido[4′,3′:3,4]pyrazolo[1,5-a]azepine-2(7H)-carboxamide] | 0.069 µM |
| C[C@@H]1Cc2nn3c(c2CN1C(=O)Nc1ccnc(Br)c1F)C(F)(F)CCC(O)(CC#N)C3 (single isomer, unassigned) [Example 89, (3R,8S*)-N-(2-Bromo-3-fluoropyridin-4-yl)-8-(cyanomethyl)-11,11-difluoro-8-hydroxy-3-methyl-3,4,8,9,10,11-hexahydro-1H-pyrido[4′,3′:3,4]pyrazolo[1,5-a]azepine-2(7H)-carboxamide] | 0.028 µM |
| C#CC1(O)CCC(F)(F)c2c3c(nn2C1)C[C@@H](C)N(C(=O)Nc1ccnc(C(F)F)c1F)C3 (single isomer, unassigned) [Example 97, (3R,8R*)-N-(2-(Difluoromethyl)-3-fluoropyridin-4-yl)-8-ethynyl-11,11-difluoro-8-hydroxy-3-methyl-3,4,8,9,10,11-hexahydro-1H-pyrido[4′,3′:3,4]pyrazolo[1,5-a]azepine-2(7H)-carboxamide] | 0.035 µM |
| C[C@@H]1Cc2nn3c(c2CN1C(=O)Nc1ccc(F)c(C#N)c1)C(F)(F)CC(O)CC3 (single isomer, unassigned) [Example 119, (3R,9S*)-N-(3-Cyano-4-fluorophenyl)-11,11-difluoro-9-hydroxyl-3-methyl-3,4,8,9,10,11-hexahydro-1H-pyrido[4′,3′:3,4]pyrazolo[1,5-a]azepine-2(7H)-carboxamide] | 0.001 µM |
| C[C@@H]1Cc2nn3c(c2CN1C(=O)Nc1ccnc(Br)c1F)C(F)=CC(O)CC3 (single isomer, unassigned) [Example 123, (3R,9R*)-N-(2-Bromo-3-fluoropyridin-4-yl)-11-fluoro-9-hydroxy-3-methyl-3,4,8,9-tetrahydro-1H-pyrido[4′,3′:3,4]pyrazolo[1,5-a]azepine-2(7H)-carboxamide] | 0.018 µM |
| C[C@@H]1Cc2nn3c(c2CN1C(=O)Nc1ccnc(Br)c1F)C(F)(F)CC(O)(CF)CC3 (single isomer, unassigned) [Example 127, (3R,9R*)-N-(2-Bromo-3-fluoropyridin-4-yl)-11,11-difluoro-9-(fluoromethyl)-9-hydroxy-3-methyl-3,4,8,9,10,11-hexahydro-1H-pyrido[4′,3′:3,4]pyrazolo[1,5-a]azepine-2(7H)-carboxamide] | 0.005 µM |
| C[C@@H]1Cc2nn3c(c2CN1C(=O)Nc1ccc(F)c(C#N)c1)C(F)(F)CC(O)(CF)CC3 (single isomer, unassigned) [Example 128, (3R,9R*)-N-(3-Cyano-4-fluorophenyl)-11,11-difluoro-9-(fluoromethyl)-9-hydroxy-3-methyl-3,4,8,9,10,11-hexahydro-1H-pyrido[4′,3′:3,4]pyrazolo[1,5-a]azepine-2(7H)-carboxamide] | 0.001 µM |
| O=C(Nc1ccnc(Br)c1F)N1CCc2nn3c(c2C1)C(F)(F)CC(CO)CC3 (single isomer, unassigned) [Example 133, (S*)-N-(2-Bromo-3-fluoropyridin-4-yl)-11,11-difluoro-9-(hydroxymethyl)-3,4,8,9,10,11-hexahydro-1H-pyrido[4′,3′:3,4]pyrazolo[1,5-a]azepine-2(7H)-carboxamide] | 0.038 µM |
| O=C(Nc1ccnc(Br)c1F)N1CCc2nn3c(c2C1)C(F)(F)CC(CO)CC3 (single isomer, unassigned) [Example 135, (R*)-N-(2-Bromo-3-fluoropyridin-4-yl)-11,11-difluoro-9-(hydroxymethyl)-3,4,8,9,10,11-hexahydro-1H-pyrido[4′,3′:3,4]pyrazolo[1,5-a]azepine-2(7H)-carboxamide] | 0.019 µM |
| C[C@@]1(O)CCC(F)(F)c2c3c(nn2C1)CCN(C(=O)Nc1ccc(F)c(C#N)c1)C3 (stereo in doubt) [Example 55, N-(3-Cyano-4-fluorophenyl)-11,11-difluoro-8-hydroxy-8-methyl-3,4,8,9,10,11-hexahydro-1H-pyrido[4′,3′:3,4]pyrazolo[1,5-a]azepine-2(7H)-carboxamide] | 0.029 µM |
| C=C1CCC(F)(F)c2c3c(nn2C1)CCN(C(=O)Nc1ccc(F)c(C#N)c1)C3 [Example 1, N-(3-Cyano-4-fluorophenyl)-11,11-difluoro-8-methylene-3,4,8,9,10,11-hexahydro-1H-pyrido[4′,3′:3,4]pyrazolo[1,5-a]azepine-2(7H)-carboxamide] | 0.044 µM |
| C=C1CCC(F)(F)c2c3c(nn2C1)CCN(C(=O)Nc1ccc(F)c(C(F)(F)F)c1)C3 [Example 2, 11,11-Difluoro-N-(4-fluoro-3-(trifluoromethyl)phenyl)-8-methylene-3,4,8,9,10,11-hexahydro-1H-pyrido[4′,3′:3,4]pyrazolo[1,5-a]azepine-2(7H)-carboxamide] | 0.051 µM |

From US20220235051A1, “DI-FLUORO AZEPANES AS HBV CAPSID ASSEMBLY MODULATORS” (priority 2019, published 2022)
